In patent US20120107385A1, “METHOD OF TREATING CONDITIONS ASSOCIATED WITH OVERACTIVE BLADDER” (priority 2010, published 2012):

Assay: Plasma oxybutynin and N-desethyloxybutynin following oral and intravaginal administration in dogs (14 day study)
Experimental: A study was conducted to determine the levels of oxybutynin and its active metabolite, N-desethyloxybutynin, present in plasma following oral and intravaginal administration of oxybutynin in dogs.
A 14 day study was conducted, where 8 young adult females were randomly assigned to 4 groups of 2 dogs each.

- plasma level of oxybutynin at 8 h or more after oral dosing (oral 10 mg/day): ≤ 2.75 ng/mL
- time after dosing at which Cmax of oxybutynin was achieved (plasma): 3 h
Compound: CCN(CC)CC#CCOC(=O)C(O)(c1ccccc1)C1CCCCC1 (centres unmarked) [oxybutynin, 4-diethylaminobut-2-ynyl2-cyclohexyl-2-hydroxy-2-phenyl-ethanoate]
